Earlier results as cited in US8586590B2, “Compounds” (GlaxoSmithKline Intellectual Property Development Limited, priority 2009, dated 2013).

What was measured:
neutrophils = settings: treatment of neutrophils; Thelen et al. 1994

Compound | neutrophil migration (neutrophil) | superoxide release (neutrophil) | inhibitory activity on phospholipases (phospholipases) | fMLP-induced respiratory burst response (neutrophils)
O=c1cc(N2CCOCC2)oc2c(-c3ccccc3)cccc12 [LY294002] | block | block | some inhibitory activity | 
COC[C@H]1OC(=O)c2coc3c2[C@@]1(C)C1=C(C3=O)[C@@H]2CCC(=O)[C@@]2(C)C[C@H]1OC(C)=O [wortmannin] | block | block |  | prevents the fMLP-induced respiratory burst response
